Laboratory results reported in patent US7951956B2, “Benzoimidazole compound capable of inhibiting prostaglandin D synthetase” (Taiho Pharmaceuticals Co., Ltd., priority 2005, dated 2011).

Molecular target: human hematopoietic synthase (Homo sapiens, UniProt O60760)
Assay: Hematopoietic synthase inhibitory activity (Experiment 1)
Format: biochemical
Conditions: [14C] prostaglandin H2 10 μM, preincubated at 25° C. for 5 minutes, 1 minute reaction; read-out: Concentration of Pharmaceutical Compound Required to Inhibit 50% of Hematopoietic Synthase
Description: Experiment 1 was carried out according to the method of Urade, Y. et al. (J. Biol. Chem. 262, 3820-3825, (1987)). More specifically, the reaction mixture (49 μL); 100 mM Tris-HCl (pH 8.0), 1 mM reduced glutathione, 0.1 mg/mL γ-globulin, and human hematopoietic synthase (quantum sufficient), and a test compound (final concentration: 0.01-100 μM) were preincubated at 25° C. for 5 minutes. In place of the test compound, a DMSO solution (final concentration: 1%) was used in the solvent control group (Control Group). Subsequently, 1 μL of [^14C] prostaglandin H2 (final concentration: 10 μM) was added to start the reaction. One minute after the start of the reaction, 250 μL of a reaction stopper solution (diethylether/methanol/1M citric acid (30/4/1) cooled to −20° C. was added to stop the reaction.
Thereafter, 50 μL of the upper layer portion (organic solvent phase) was applied to a TLC plate and developed at −20° C. for 45 minutes (developer: diethylether/methanol/acetic acid (capacity ratio=90/2/1)). After drying the plate, the plate was exposed to an imaging plate for 1 to 24 hours, and the radioactivity corresponding to prostaglandin D2 was analyzed using an image analyzer (product of FUJIFILM Corporation). The area (%) occupied by the prostaglandin D2 band per lane was calculated, and the concentration of the test compound required to inhibit 50% of the hematopoietic synthase (IC50 value) was calculated by comparison with the Control group in each experiment.

Sequence of human hematopoietic synthase (O60760 whole entry): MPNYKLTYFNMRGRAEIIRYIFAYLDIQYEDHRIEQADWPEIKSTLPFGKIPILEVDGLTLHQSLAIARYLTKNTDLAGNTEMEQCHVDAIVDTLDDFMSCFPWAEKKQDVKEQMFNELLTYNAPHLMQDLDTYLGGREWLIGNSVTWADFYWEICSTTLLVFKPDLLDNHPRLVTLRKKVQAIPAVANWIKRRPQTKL

Compound	IC50
Cc1[nH]c(C(=O)NCc2ccc(Cl)c(Cl)c2)c(C)c1-c1nc2cc(C(=O)c3ccccc3)ccc2[nH]1 [Compound 35, N-(3,4-Dichlorobenzyl)-4-(5-benzoylbenzimidazol-2-yl)-3,5-dimethylpyrrole-2-carboxamide]	746 nM
Cc1[nH]c(C(=O)N2CCOCC2)c(C)c1-c1nc2cc(Oc3ccccc3)ccc2[nH]1 [Compound 71, ((4-(5-Phenoxybenzimidazole-2-yl)-3,5-dimethylpyrrol-2-yl)-2-carbonyl)morpholine]	870 nM
Cc1[nH]c(C(=O)NCCc2ccccn2)c(C)c1-c1nc2cc(C(=O)c3ccccc3)ccc2[nH]1 [Compound 34, N-(2-(2-Pyridyl)ethyl)-4-(5-benzoylbenzimidazol-2-yl)-3,5-dimethylpyrrole-2-carboxamide]	72 nM
COc1ccc(CNC(=O)c2[nH]c(C)c(-c3nc4cc(C(=O)c5ccccc5)ccc4[nH]3)c2C)cc1OC [Compound 36, N-(3,4-Dimethoxybenzyl)-4-(5-benzoylbenzimidazol-2-yl)-3,5-dimethylpyrrole-2-carboxamide]	195 nM
CCOC(=O)c1[nH]c(C)c(-c2nc3cc(Sc4ccncc4)c(Oc4ccccc4)cc3[nH]2)c1C [Comparative Example 1, 4-(5-(4-Pyridylsulfenyl)-6-phenoxybenzimidazole-2-yl)-3,5-dimethylpyrrole-2-carboxylic acid ethyl ester, reference compound]	> 30000 nM
Cc1[nH]c(C(=O)Nc2ccc(C#N)cc2)c(C)c1-c1nc2cc(C(=O)c3ccccc3)ccc2[nH]1 [Compound 27, N-(4-Cyanophenyl)-4-(5-benzoylbenzimidazol-2-yl)-3,5-dimethylpyrrole-2-carboxamide]	309 nM
NC(=O)c1ccc(-c2nc3cc(C(=O)c4ccccc4)ccc3[nH]2)o1 [Compound 60, 5-(5-Benzoylbenzimidazol-2-yl)-furan-2-carboxamide]	4360 nM
Cc1[nH]c(C(=O)Nc2ccc3[nH]ccc3c2)c(C)c1-c1nc2cc(C(=O)c3ccccc3)ccc2[nH]1 [Compound 28, N-(Indole-5-yl)-4-(5-benzoylbenzimidazol-2-yl)-3,5-dimethylpyrrole-2-carboxamide]	73 nM
CCOC(=O)C1CCN(C(=O)c2[nH]c(C)c(-c3nc4cc(C(=O)c5ccccc5)ccc4[nH]3)c2C)CC1 [Compound 44, ((4-(5-Benzoylbenzimidazol-2-yl)-3,5-dimethylpyrrol-2-yl)-carbonyl)-4-ethoxycarbonylpiperidine]	1670 nM
Cc1[nH]c(C(=O)NCC(=O)O)c(C)c1-c1nc2cc(C(=O)c3ccccc3)ccc2[nH]1 [Compound 22, N-(1-Carboxymethyl)-4-(5-benzoylbenzimidazol-2-yl)-3,5-dimethylpyrrole-2-carboxamide]	829 nM
Cc1[nH]c(C(=O)Nc2ccc3c(c2)OCO3)c(C)c1-c1nc2cc(C(=O)c3ccccc3)ccc2[nH]1 [Compound 29, N-(3,4-Methylenedioxyphenyl-1-yl)-4-(5-benzoylbenzimidazol-2-yl)-3,5-dimethylpyrrole-2-carboxamide]	53 nM
Cc1[nH]c(C(=O)N2CCN(c3ccccc3)CC2)c(C)c1-c1nc2cc(C(=O)c3ccccc3)ccc2[nH]1 [Compound 41, ((4-(5-Benzoylbenzimidazol-2-yl)-3,5-dimethylpyrrol-2-yl)-carbonyl)-4-phenylpiperazine]	1450 nM
Cc1[nH]c(C(=O)NCCN2CCCCC2)c(C)c1-c1nc2cc(C(=O)c3ccccc3)ccc2[nH]1 [Compound 24, N-(2-Piperidine-1-yl-ethyl)-4-(5-benzoylbenzimidazol-2-yl)-3,5-dimethylpyrrole-2-carboxamide]	496 nM
CCOC(=O)CCNC(=O)c1[nH]c(C)c(-c2nc3cc(C(=O)c4ccccc4)ccc3[nH]2)c1C [Compound 19, N-(2-Ethoxycarbonylethyl)-4-(5-benzoylbenzimidazol-2-yl)-3,5-dimethylpyrrole-2-carboxamide]	874 nM
CNC(=O)c1[nH]c(C)c(-c2nc3cc(C(=O)c4ccccc4)ccc3[nH]2)c1C [Compound 66, (N-Methyl)-4-(5-benzoylbenzimidazol-2-yl)-3,5-dimethylpyrrole-2-carboxamide]	77 nM
Cc1[nH]c(C(N)=O)c(C)c1-c1nc2cc(C(=O)c3ccccc3)ccc2[nH]1 [Compound 12, 4-(5-Benzoylbenzimidazol-2-yl)-3,5-dimethylpyrrole-2-carboxamide]	100 nM
COCCCNC(=O)C1CCN(C(=O)c2[nH]c(C)c(-c3nc4cc(C(=O)c5ccccc5)ccc4[nH]3)c2C)CC1 [Compound 49, N-(3-Methoxypropyl)-1-((4-(5-benzoylbenzimidazol-2-yl)-3,5-dimethylpyrrol-2-yl)-carbonyl)piperidine-4-carboxamide]	649 nM
Cc1oc(C(=O)NCc2ccc3c(c2)OCO3)c(C)c1-c1nc2cc(C(=O)c3ccccc3)ccc2[nH]1 [Compound 4, N-(3,4-Methylenedioxyphenyl)methyl-4-(5-benzoylbenzimidazol-2-yl)-3,5-dimethylfuran-2-carboxamide]	278 nM
Cc1cc(NC(=O)c2[nH]c(C)c(-c3nc4cc(C(=O)c5ccccc5)ccc4[nH]3)c2C)no1 [Compound 26, N-(5-Methylisoxazole-3-yl)-4-(5-benzoylbenzimidazol-2-yl)-3,5-dimethylpyrrole-2-carboxamide]	149 nM

The remaining compounds from weak to strong by IC50, led by results:

IC50	Compound
2370 nM	O=C(c1ccccc1)c1ccc2[nH]c(-c3ccc(Br)o3)nc2c1 [Compound 58, 2-(5-Bromo-furan-2-yl)-5-benzoylbenzimidazole]
2280 nM	COCCCNC(=O)c1[nH]c(C)c(-c2nc3cc(C(=O)c4ccccc4)ccc3[nH]2)c1C [Compound 16, N-(3-Methoxypropyl)-4-(5-benzoylbenzimidazol-2-yl)-3,5-dimethylpyrrole-2-carboxamide]
351 nM	Cc1[nH]c(C(=O)N2CCCC2)c(C)c1-c1nc2cc(C(=O)c3ccccc3)ccc2[nH]1 [Compound 39, ((4-(5-Benzoylbenzimidazol-2-yl)-3,5-dimethylpyrrol-2-yl)-carbonyl)pyrrolidine]
269 nM	Cc1[nH]c(C(=O)N2CCC(C(=O)N(C)CCN(C)C)CC2)c(C)c1-c1nc2cc(C(=O)c3ccccc3)ccc2[nH]1 [Compound 47, N-Methyl-N-(2-dimethylaminoethyl)-1-((4-(5-benzoylbenzimidazol-2-yl)-3,5-dimethylpyrrol-2-yl)-carbonyl)piperidine-4-carboxamide]
269 nM	Cc1[nH]c(C(=O)N(C)CCN(C)C)c(C)c1-c1nc2cc(C(=O)c3ccccc3)ccc2[nH]1 [Compound 11, N-Methyl-N-(2-dimethylaminoethyl)-4-(5-benzoylbenzimidazol-2-yl)-3,5-dimethylpyrrole-2-carboxamide]
240 nM	CONC(=O)c1[nH]c(C)c(-c2nc3cc(Oc4ccccc4)ccc3[nH]2)c1C [Compound 73, N-(Methoxy)-4-(5-phenoxybenzimidazole-2-yl)-3,5-dimethylpyrrole-2-carboxamide]
213 nM	Cc1[nH]c(C(=O)NCc2ccc3c(c2)OCO3)c(C)c1-c1nc2cc(C(=O)c3ccccc3)ccc2[nH]1 [Compound 37, N-(3,4-Methylenedioxyphenylmethyl)-4-(5-benzoylbenzimidazol-2-yl)-3,5-dimethylpyrrole-2-carboxamide]
209 nM	Cc1[nH]c(C(=O)NCCc2ccccn2)c(C)c1-c1nc2cc(Oc3ccccc3)ccc2[nH]1 [Compound 72, N-(2-(2-Pyridyl)ethyl)-4-(5-phenoxybenzimidazole-2-yl)-3,5-dimethylpyrrole-2-carboxamide]
124 nM	Cc1[nH]c(C(=O)NCCCN(C)C)c(C)c1-c1nc2cc(C(=O)c3ccccc3)ccc2[nH]1 [Compound 17, N-(3-Dimethylaminopropyl)-4-(5-benzoylbenzimidazol-2-yl)-3,5-dimethylpyrrole-2-carboxamide]
124 nM	Cc1[nH]c(C(=O)N2CCC(C(=O)NCCCN(C)C)CC2)c(C)c1-c1nc2cc(C(=O)c3ccccc3)ccc2[nH]1 [Compound 48, N-(3-Dimethylaminopropyl)-1-((4-(5-benzoylbenzimidazol-2-yl)-3,5-dimethylpyrrol-2-yl)-carbonyl)piperidine-4-carboxamide]
124 nM	Cc1[nH]c(C(=O)N(C)O)c(C)c1-c1nc2cc(C(=O)c3ccccc3)ccc2[nH]1 [Compound 65, (N-Hydroxy-N-methyl)-4-(5-benzoylbenzimidazol-2-yl)-3,5-dimethylpyrrole-2-carboxamide]
113 nM	Cc1[nH]c(C(=O)Nc2ccc3c(c2)CCO3)c(C)c1-c1nc2cc(C(=O)c3ccccc3)ccc2[nH]1 [Compound 30, N-(2,3-Dihydrobenzofuran-5-yl)-4-(5-benzoylbenzimidazol-2-yl)-3,5-dimethylpyrrole-2-carboxamide]
90 nM	Cc1[nH]c(C(=O)Nc2ccc3ncsc3c2)c(C)c1-c1nc2cc(C(=O)c3ccccc3)ccc2[nH]1 [Compound 31, N-(Benzothiazole-6-yl)-4-(5-benzoylbenzimidazol-2-yl)-3,5-dimethylpyrrole-2-carboxamide]
80 nM	CC(=O)NCCNC(=O)c1[nH]c(C)c(-c2nc3cc(C(=O)c4ccccc4)ccc3[nH]2)c1C [Compound 18, N-(2-Acetamidoethyl)-4-(5-benzoylbenzimidazol-2-yl)-3,5-dimethylpyrrole-2-carboxamide]
